Columns and labels:
Type in all cases: cell-based
[1] = tested on: 59 human cancer cell lines; assay: NCI one-dose screen, whole panel; settings: Homo sapiens, mean over the panel, read-out: Mean Growth Percent
Method: (§1) For screening of anticancer properties, all the developed compounds were chosen by the (NCI) for in-vitro antitumor evaluation. The assay was carried out using 59 human cancer cell lines obtained from nine tumour subpanels (breast, ovarian, melanoma, leukaemia, renal, CNS, lung, prostate, and colon cancer cell lines). Compounds were assessed at a 10 µM concentration. […] Also, hybrids 4a, 4b, 4e, 4i and 4j produced significant anti-proliferative effect in several cancer cells, particularly in leukaemia (RPMI-8226) and colon (HCT116) cells with growth percent of 47.87, −14.59, −24.56, −24.42, −15.84, −9.74, −53.36, −10.26, −31.29, and −39.51%, respectively.
(§2) The method description for NCI anticancer screening is provided in detail in the standard NCI-60 testing protocol.

HCT116 = assay: MTT assay; settings: Homo sapiens, HCT-116, 24 h incubation
Procedure, shortened: (§3)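 Colorectal lines treated with 1, 5, 10, 20, 40, 80 or 100 µM compound, or DMSO vehicle. Proliferation read by MTT reduction.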

HT-29 = assay: MTT assay; settings: Homo sapiens; HT-29, MTT assay, 24 h incubation
Procedure, shortened: as §3

Caco-2 = assay: MTT assay; settings: Homo sapiens; Caco-2, MTT assay, 24 h incubation
Procedure, shortened: as §3

OVCAR-8 = assay: NCI one-dose screen; settings: Homo sapiens; OVCAR-8, 10 µM; read-out: Growth Percent
Method: as §1, §2

SN12C = assay: NCI one-dose screen; settings: Homo sapiens, read-out: Growth Percent
Method: as §1, §2

LOX IMVI = assay: NCI one-dose screen; settings: Homo sapiens, read-out: Growth Percent
Method: as §1, §2

HCT-15 = assay: NCI one-dose screen; settings: Homo sapiens; HCT-15, 10 µM; read-out: Growth Percent
Method: as §1, §2

KM12 = assay: NCI one-dose screen; settings: Homo sapiens; KM12, 10 µM; read-out: Growth Percent
Method: as §1, §2

MDA-MB-435 = assay: NCI one-dose screen; settings: Homo sapiens; MDA-MB-435, 10 µM; read-out: Growth Percent
Method: as §1, §2

HCC-2998 = assay: NCI one-dose screen; settings: Homo sapiens; HCC-2998, 10 µM; read-out: Growth Percent
Method: as §1, §2

MDA-MB-468 = assay: NCI one-dose screen; settings: Homo sapiens; MDA-MB-468, 10 µM; read-out: Growth Percent
Method: as §1, §2

SF-268 = assay: NCI one-dose screen; settings: Homo sapiens; SF-268, 10 µM; read-out: Growth Percent
Method: as §1, §2

NCI-H460 = assay: NCI one-dose screen; settings: Homo sapiens; NCI-H460, 10 µM; read-out: Growth Percent
Method: as §1, §2

A549/ATCC = assay: NCI one-dose screen; settings: Homo sapiens, read-out: Growth Percent
Method: as §1, §2

SR = assay: NCI one-dose screen; settings: Homo sapiens, read-out: Growth Percent
Method: as §1, §2

NCI-H23 = assay: NCI one-dose screen; settings: Homo sapiens; NCI-H23, 10 µM; read-out: Growth Percent
Method: as §1, §2

HT29 = assay: NCI one-dose screen; settings: Homo sapiens, HT-29; HT29, 10 µM; read-out: Growth Percent
Method: as §1, §2

NCI-H226 = assay: NCI one-dose screen; settings: Homo sapiens; NCI-H226, 10 µM; read-out: Growth Percent
Method: as §1, §2

SK-MEL-28 = assay: NCI one-dose screen; settings: Homo sapiens; SK-MEL-28, 10 µM; read-out: Growth Percent
Method: as §1, §2

NCI-H522 = assay: NCI one-dose screen; settings: Homo sapiens; NCI-H522, 10 µM; read-out: Growth Percent
Method: as §1, §2

ACHN = assay: NCI one-dose screen; settings: Homo sapiens, read-out: Growth Percent
Method: as §1, §2

SF-295 = assay: NCI one-dose screen; settings: Homo sapiens; SF-295, 10 µM; read-out: Growth Percent
Method: as §1, §2

A498 = assay: NCI one-dose screen; settings: Homo sapiens; A498, 10 µM; read-out: Growth Percent
Method: as §1, §2

SNB-75 = assay: NCI one-dose screen; settings: Homo sapiens; SNB-75, 10 µM; read-out: Growth Percent
Method: as §1, §2

CCRF-CEM = assay: NCI one-dose screen; settings: Homo sapiens, read-out: Growth Percent
Method: as §1, §2

UACC-257 = assay: NCI one-dose screen; settings: Homo sapiens; UACC-257, 10 µM; read-out: Growth Percent
Method: as §1, §2

U251 = assay: NCI one-dose screen; settings: Homo sapiens, U-251; U251, 10 µM; read-out: Growth Percent
Method: as §1, §2

SW-620 = assay: NCI one-dose screen; settings: Homo sapiens; SW-620, 10 µM; read-out: Growth Percent
Method: as §1, §2

MCF7 = assay: NCI one-dose screen; settings: Homo sapiens; MCF7, 10 µM; read-out: Growth Percent
Method: as §1, §2

M14 = assay: NCI one-dose screen; settings: Homo sapiens; M14, 10 µM; read-out: Growth Percent
Method: as §1, §2

DU-145 = assay: NCI one-dose screen; settings: Homo sapiens; DU-145, 10 µM; read-out: Growth Percent
Method: as §1, §2

OVCAR-3 = assay: NCI one-dose screen; settings: Homo sapiens; OVCAR-3, 10 µM; read-out: Growth Percent
Method: as §1, §2

EKVX = assay: NCI one-dose screen; settings: Homo sapiens, read-out: Growth Percent
Method: as §1, §2

SF-539 = assay: NCI one-dose screen; settings: Homo sapiens; SF-539, 10 µM; read-out: Growth Percent
Method: as §1, §2

MOLT-4 = assay: NCI one-dose screen; settings: Homo sapiens; MOLT-4, 10 µM; read-out: Growth Percent
Method: as §1, §2

| SMILES | activity at 10 µM [1] [%] | IC50 (HCT116) [µM] | IC50 (HT-29) [µM] | IC50 (Caco-2) [µM] | activity at 10 µM (OVCAR-8) [%] | activity at 10 µM (SN12C) [%] | activity at 10 µM (LOX IMVI) [%] | activity at 10 µM (HCT-15) [%] | activity at 10 µM (KM12) [%] | activity at 10 µM (MDA-MB-435) [%] | activity at 10 µM (HCC-2998) [%] | activity at 10 µM (MDA-MB-468) [%] | activity at 10 µM (SF-268) [%] | activity at 10 µM (NCI-H460) [%] | activity at 10 µM (A549/ATCC) [%] | activity at 10 µM (SR) [%] | activity at 10 µM (NCI-H23) [%] | activity at 10 µM (HT29) [%] | activity at 10 µM (NCI-H226) [%] | activity at 10 µM (SK-MEL-28) [%] | also measured |
| --- | --- | --- | --- | --- | --- | --- | --- | --- | --- | --- | --- | --- | --- | --- | --- | --- | --- | --- | --- | --- | --- |
| Cc1ccc(/C=C/C(=O)c2ccc(-n3cc(CN4CCN(c5cc6c(cc5F)c(=O)c(C(=O)O)cn6C5CC5)CC4)nn3)cc2)cc1 [Compound 4f, (E)-1-cyclopropyl-6-fluoro-4-oxo-7-(4-((1-(4-(3-(p-tolyl)acryloyl)phenyl)-1H-1,2,3-triazol-4-yl)methyl)piperazin-1-yl)-1,4-dihydroquinoline-3-carboxylic acid] | 80.3 | 7.22 ± 1.45 | 14.7 ± 1.81 | 10.1 ± 2.82 | 79 | 44.9 | 50.4 | 95 | 88.8 | 86.6 | 98.5 | 92.2 | 72.6 | 85.8 | 87.3 | 16.6 | 85.4 | 91.7 | 84.5 | 107 | activity at 10 µM (NCI-H522): 78.3%; activity at 10 µM (ACHN): 93.7%; activity at 10 µM (SF-295): 87.6%; activity at 10 µM (A498): 57.4%; activity at 10 µM (SNB-75): 93.6%; activity at 10 µM (CCRF-CEM): 56.3%; activity at 10 µM (UACC-257): 95.8%; activity at 10 µM (U251): 71.2%; activity at 10 µM (SW-620): 95.5%; activity at 10 µM (MCF7): 64.8%; activity at 10 µM (M14): 87%; activity at 10 µM (DU-145): 78.9%; activity at 10 µM (OVCAR-3): 95.9%; activity at 10 µM (EKVX): 90.7%; activity at 10 µM (SF-539): 83%; activity at 10 µM (MOLT-4): 67.7% |
| O=C(/C=C/c1cccc(Cl)c1)c1ccc(-n2cc(CN3CCN(c4cc5c(cc4F)c(=O)c(C(=O)O)cn5C4CC4)CC3)nn2)cc1 [Compound 4b, (E)-7-(4-((1–(4-(3-(3-chlorophenyl)acryloyl)phenyl)-1H-1,2,3-triazol-4-yl)methyl)piperazin-1-yl)-1-cyclopropyl-6-fluoro-4-oxo-1,4-dihydroquinoline-3-carboxylic acid] | 65 | 4.81 ± 1.21 | 42.9 ± 5.14 | 24.4 ± 3.07 | 42.7 | 37.6 | 36.9 | 71.7 | 29.9 | 74 | 59.3 | 64.8 | 56.4 | 66.7 | 71.6 | 14.1 | 91.4 | 53.3 | 82.1 | 95.8 | activity at 10 µM (NCI-H522): 83.9%; activity at 10 µM (ACHN): 77.7%; activity at 10 µM (SF-295): 80.2%; activity at 10 µM (A498): 70.8%; activity at 10 µM (SNB-75): 89.2%; activity at 10 µM (CCRF-CEM): 29.9%; activity at 10 µM (UACC-257): 87.7%; activity at 10 µM (U251): 34.3%; activity at 10 µM (SW-620): 85.4%; activity at 10 µM (MCF7): 37.6%; activity at 10 µM (M14): 79%; activity at 10 µM (DU-145): 77.5%; activity at 10 µM (OVCAR-3): 57.3%; activity at 10 µM (EKVX): 85%; activity at 10 µM (SF-539): 60.1%; activity at 10 µM (MOLT-4): 68.2% |

From paper PMC9116245, “New 1,2,3-triazole linked ciprofloxacin-chalcones induce DNA damage by inhibiting human topoisomerase I& II and tubulin polymerization” (Journal of Enzyme Inhibition and Medicinal Chemistry, 2022)
